Measurements reported in US20190119200A1, “TERTIARY AMIDES AND METHOD OF USE” (AbbVie Inc., priority 2016, published 2019).

How the values were obtained:
Type in all cases: cell-based
LPAR1 [1] = biological target: T1, LPAR1 (Homo sapiens, UniProt Q92633); test: LPAR1 FLIPR Assay; conditions: U2OS cells stably expressing LPAR1, LPA (EC80), Calcium 6 FLIPR dye; for Emax: read-out: Maximum Inhibition
T1 construct: host or cells: U2OS
How it was run: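 U2OS cells stably expressing LPAR1 were loaded with Calcium 6 dye for 2 h at 37° C, preincubated 3 min with compound (11-point 3-fold series), then stimulated with LPA at EC80. Fluorescence at 515-575 nm was recorded by FLIPR; IC50 came from four-parameter logistic fits of ratio data.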

LPAR1 [2] = biological target: T1, LPAR1; test: IP-One HTRF Assay; conditions: U2OS cells stably expressing LPAR1, LPA stimulation, IP-One Tb HTRF kit; for Emax: read-out: Maximum Inhibition
Procedure: U2OS cells stably expressing LPAR1 (Life Technologies #K1519A) were plated at 20000 cells/well in growth medium (McCoy's 5A(Life Technologies #16600-082)) with 10% dFBS (Life Technologies #26400-036), 0.1 mM non-essential amino acids, 25 mM HEPES, 1 mM sodium pyruvate, 1% penicillin/streptomycin, 50 μg/mL hygromycin, and 100 μg/mL Geneticin® in tissue culture treated 384-well white plates (Greiner #781080) in humidified 5% CO2 at 37° C. overnight. On the day of the assay, culture medium was replaced with 30 μL/well of McCoy's 5A with 0.1% BSA. Cells were incubated in humidified 5% CO2 at 37° C. for 3 more hours. Compounds were 3-fold serial diluted from 2 mM for 11-points using dimethyl sulfoxide. 1 μL of compound in DMSO was diluted in 50 μL stimulation buffer from an IP-One Tb HTRF kit (Cisbio #62IPAPEB) immediately before assay. 15 μL/well of 1.33× compound in stimulation buffer was added to cells after removal of culture medium. After 20 minutes of incubation at 37° C., 5 μL/well of 8 μM LPA diluted in stimulation buffer with 0.1% fatty acid free BSA was added to cells. […]. To EC100 wells were added 4×20 μM LPA. To the cells were added 5 μL/well IP1-d2 conjugate and 5 μLwell IP1-K antibody after 2 hours of incubation at 37° C. Cells were incubated at room temperature for 1 hour (protected from light). The plate was then read at 665 nm and 615 nm using an EnVision® Multilabel Plate Reader. IC50 values were calculated from curve fits of the ratio data using a four-parameter logistic Hill equation (Assay Explorer 3.3 Client).

[3] = system: LPA-induced MCP-1 in NRK-49F cells; test: LPA-induced MCP-1 AlphaLISA assay; conditions: Rattus norvegicus, final LPA 10 μM, 7 hours; for Emax: read-out: Maximum Inhibition
How it was run: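 NRK-49F rat fibroblasts, serum-starved overnight, pretreated with compound for 30 min at 37 °C (1% DMSO final), then stimulated with 10 μM LPA final. MCP-1 in the supernatant was measured by mouse/rat CCL2 AlphaLISA. IC50 values came from four-parameter logistic fits of the ratio data.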

T1 sequence (Q92633 whole entry): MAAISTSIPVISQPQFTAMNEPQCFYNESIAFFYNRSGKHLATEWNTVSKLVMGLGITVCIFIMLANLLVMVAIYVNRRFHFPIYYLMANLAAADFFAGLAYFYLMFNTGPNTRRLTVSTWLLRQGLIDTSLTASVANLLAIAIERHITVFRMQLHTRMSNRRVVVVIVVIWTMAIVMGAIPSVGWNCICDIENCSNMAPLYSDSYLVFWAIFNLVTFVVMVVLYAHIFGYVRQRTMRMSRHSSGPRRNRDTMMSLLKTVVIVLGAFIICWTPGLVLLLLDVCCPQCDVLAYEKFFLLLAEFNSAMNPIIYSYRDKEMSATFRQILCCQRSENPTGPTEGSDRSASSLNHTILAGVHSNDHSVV

Compound | IC50 (LPAR1 [1]) [µM] | Emax (LPAR1 [1]) [%] | IC50 (LPAR1 [2]) [µM] | Emax (LPAR1 [2]) [%] | IC50 [3] [µM] | Emax [3] [%]
COc1cc(C(=O)N(CCCc2ccccc2)CC(=O)NC2(C(=O)O)CCCCC2)cc(OC)c1C [Example 2, 1-{[N-(3,5-dimethoxy-4-methylbenzoyl)-N-(3-phenylpropyl)glycyl]amino}cyclohexane-1-carboxylic Acid] | 0.114 | 72 | 4.83 | 84 | – | –
COc1cc(C(=O)N(CCCc2ccccc2)CCSCC2(C(=O)O)CC2)cc(OC)c1C [Example 61, 1-[({2-[(3,5-dimethoxy-4-methylbenzoyl)(3-phenylpropyl)amino]ethyl}sulfanyl)methyl]cyclopropane-1-carboxylic Acid] | 0.02 | 98 | 0.114 | 85 | 0.147 | 92
COc1cc(C(=O)N(CCCc2ccccc2)CCOC(C)(C)C(=O)O)cc(OC)c1C [Example 55, 2-{2-[(3,5-dimethoxy-4-methylbenzoyl)(3-phenylpropyl)amino]ethoxy}-2-methylpropanoic Acid] | 0.022 | 100 | 0.089 | 98 | 0.111 | 93
CCOP(=O)(O)CCCCN(CCCc1ccccc1)C(=O)c1cc(OC)cc(OC)c1 [Example 76, ethyl hydrogen {4-[(3,5-dimethoxybenzoyl)(3-phenylpropyl)amino]butyl}phosphonate] | 0.048 | 76 | 5.83 | 65 | > 10 | 36
COc1cc(C(=O)N(CCCCC(=O)NS(=O)(=O)c2ccccn2)CCCc2ccccc2)cc(OC)c1C [Example 141, 3,5-dimethoxy-4-methyl-N-{5-oxo-5-[(pyridine-2-sulfonyl)amino]pentyl}-N-(3-phenylpropyl)benzamide] | 0.028 | 94 | 0.2 | 76 | 0.143 | 84
COc1cc(C(=O)N(CCCc2c(F)cccc2F)CCOCC(=O)O)cc(OC)c1C [Example 128, (2-{[3-(2,6-difluorophenyl)propyl](3,5-dimethoxy-4-methylbenzoyl)amino}ethoxy)acetic Acid] | 0.023 | 89 | 1.8 | 101 | 1.08 | 78
CNS(=O)(=O)NC(=O)CCCCN(CCCc1ccccc1)C(=O)C1(c2ccc(OC)cc2)CC1 [Example 73, 1-(4-methoxyphenyl)-N-{5-[(methylsulfamoyl)amino]-5-oxopentyl}-N-(3-phenylpropyl)cyclopropane-1-carboxamide] | 0.06 | 65 | > 30 | 44 | 5.16 | 79
COc1cc(C(=O)N(CCCCC(=O)O)CCCc2ccc(C)o2)cc(OC)c1C [Example 138, 5-{(3,5-dimethoxy-4-methylbenzoyl)[3-(5-methylfuran-2-yl)propyl]amino}pentanoic Acid] | 0.013 | 89 | 0.201 | 87 | 1.01 | 85
COc1cc(C(=O)N(CCCC(=O)O)CCCc2ccccc2)cc(OC)c1C [Example 69, 4-[(3,5-dimethoxy-4-methylbenzoyl)(3-phenylpropyl)amino]butanoic Acid] | > 30 | 38 | 3.82 | 85 | 1.66 | 62
COc1cc(C(=O)N(CCCCC(=O)O)CCCc2cccc(C)c2)cc(OC)c1C [Example 11, 5-{(3,5-dimethoxy-4-methylbenzoyl)[3-(3-methylphenyl)propyl]amino}pentanoic Acid] | 0.015 | 96 | 0.253 | 88 | 0.247 | 91
CNS(=O)(=O)NC(=O)CCN(CCCc1ccccc1)C(=O)c1cc(OC)c(C)c(OC)c1 [Example 68, 3,5-dimethoxy-4-methyl-N-{3-[(methylsulfamoyl)amino]-3-oxopropyl}-N-(3-phenylpropyl)benzamide] | 0.902 | 52 | 13.3 | 67 | – | –
COc1cc(C(=O)N(CCCc2ccccc2)CCCC(C)C(=O)O)cc(OC)c1C (stereo not shown) [Example 54, 5-[(3,5-dimethoxy-4-methylbenzoyl)(3-phenylpropyl)amino]-2-methylpentanoic Acid] | 0.015 | 100 | 0.022 | 91 | 0.055 | 96
COc1cc(OC)cc(C(=O)N(CCCc2ccccc2)CCCC(C)(C)C(=O)O)c1 [Example 108, 5-[(3,5-dimethoxybenzoyl)(3-phenylpropyl)amino]-2,2-dimethylpentanoic Acid] | 0.026 | 94 | 0.23 | 82 | 0.668 | 83
CNS(=O)(=O)NC(=O)CCCCN(CCCc1ccccc1)C(=O)c1cc(OC)cc(OC)c1 [Example 74, 3,5-dimethoxy-N-{5-[(methylsulfamoyl)amino]-5-oxopentyl}-N-(3-phenylpropyl)benzamide] | 0.079 | 67 | 1.18 | 63 | 3.88 | 77
COc1cc(C(=O)N(CCCCC(=O)O)CCCc2ccccc2)ccc1[N+](=O)[O-] [Example 22, 5-[(3-methoxy-4-nitrobenzoyl)(3-phenylpropyl)amino]pentanoic Acid] | 0.054 | 89 | – | – | > 9.35 | 42
COc1cc(C(=O)N(CCCCC(=O)O)CCCc2ccccc2)ccc1F [Example 81, 5-[(4-fluoro-3-methoxybenzoyl)(3-phenylpropyl)amino]pentanoic Acid] | > 30 | 31 | – | – | > 10 | 33
COc1cc(C(=O)N(CCCc2ccc(C)o2)CCCC(C)C(=O)O)cc(OC)c1C (stereo not shown) [Example 179, 5-{(3,5-dimethoxy-4-methylbenzoyl)[3-(5-methylfuran-2-yl)propyl]amino}-2-methylpentanoic Acid] | 0.046 | 97 | – | – | 1.98 | 74
COc1cc(C(=O)N(CCCc2ccc(C)o2)CCCC(C)(C)C(=O)O)cc(OC)c1C [Example 180, 5-{(3,5-dimethoxy-4-methylbenzoyl)[3-(5-methylfuran-2-yl)propyl]amino}-2,2-dimethylpentanoic Acid] | 0.048 | 100 | – | – | 0.105 | 93
COc1cc(C(=O)N(CCCCC(=O)O)CCCc2ccccc2)cc2oc(C)cc12 [Example 31, 5-[(4-methoxy-2-methyl-1-benzofuran-6-carbonyl)(3-phenylpropyl)amino]pentanoic Acid] | 0.045 | 87 | – | – | 5.32 | 68
COc1cc(C(=O)N(CCCOC(=O)NS(=O)(=O)c2ccc(F)cc2)CCCc2ccccc2)cc(OC)c1C [Example 145, 3-[(3,5-dimethoxy-4-methylbenzoyl)(3-phenylpropyl)amino]propyl (4-fluorobenzene-1-sulfonyl)carbamate] | 0.437 | 51 | – | – | 3.96 | 59
COc1cc(C(=O)N(CCCCC(=O)O)CCCc2ccc(F)cc2F)cc(OC)c1C [Example 146, 5-{[3-(2,4-difluorophenyl)propyl](3,5-dimethoxy-4-methylbenzoyl)amino}pentanoic Acid] | 0.046 | 89 | – | – | 0.807 | 79
COc1cc(C(=O)N(CCCCC(=O)O)Cc2ccccc2)cc(OC)c1C [Example 94, 5-[benzyl(3,5-dimethoxy-4-methylbenzoyl)amino]pentanoic Acid] | > 30 | 2 | – | – | > 10 | 13
